From patent US20260117203A1, “MUTANT KETOREDUCTASE WITH INCREASED KETOREDUCTASE ACTIVITY AS WELL AS METHODS AND USES INVOLVING THE SAME” (Hoffmann-La Roche Inc., priority 2023, published 2026)
Changes are numbered by the printed parent chain.

Experiments:
Type in all cases: biochemical
[1] = molecular target: T1, Sporidiobolus salmonicolor ketoreductase variant E00184, Trp97_Ala224_Lys238_Met241_Trp242_Ser245_Gly246_Met316_Met342, SEQ ID NO: 8, His-tag (Sporobolomyces salmonicolor, UniProt Q9UUN9, A238K/F97W/L241M/L316M/M242W/Q245S/S224A/T342M/Y246G); assay: Kinetic characterization (app. KM, app. kcat), Table 9c, variant E00184 (first line); conditions: relative to WT = 1
T1 sequence (Q9UUN9 1-343 F97W/S224A/A238K/L241M/M242W/Q245S/Y246G/L316M/T342M): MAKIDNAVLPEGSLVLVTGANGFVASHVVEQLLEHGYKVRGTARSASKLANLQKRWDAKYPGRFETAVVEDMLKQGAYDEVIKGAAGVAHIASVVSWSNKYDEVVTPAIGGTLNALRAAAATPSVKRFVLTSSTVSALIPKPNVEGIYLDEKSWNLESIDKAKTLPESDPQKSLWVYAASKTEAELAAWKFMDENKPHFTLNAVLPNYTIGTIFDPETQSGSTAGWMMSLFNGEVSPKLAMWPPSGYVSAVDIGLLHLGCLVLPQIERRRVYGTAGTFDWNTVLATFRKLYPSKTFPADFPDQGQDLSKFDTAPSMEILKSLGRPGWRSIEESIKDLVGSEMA

[2] = molecular target: T2, Sporidiobolus salmonicolor ketoreductase, wild type (WT), UniProt Q9UUN9, SEQ ID NO: 1 (Sporobolomyces salmonicolor, UniProt Q9UUN9); assay: Kinetic characterization (app. KM, app. kcat), Table 9c, wild type; conditions: reference = 1
T2 sequence (Q9UUN9 1-343): T1 sequence (Q9UUN9 1-343 F97W/S224A/A238K/L241M/M242W/Q245S/Y246G/L316M/T342M) with W97F, A224S, K238A, M241L, W242M, S245Q, G246Y, M316L, M342T

[3] = molecular target: T3, Sporidiobolus salmonicolor ketoreductase variant E00174, Trp97_Lys238_Met241_Trp242_Ser245_Gly246_Met316_Met342, SEQ ID NO: 7, His-tag (Sporobolomyces salmonicolor, UniProt Q9UUN9, A238K/F97W/L241M/L316M/M242W/Q245S/T342M/Y246G); assay: Kinetic characterization (app. KM, app. kcat), Table 9c, variant E00174
T3 sequence (Q9UUN9 1-343 F97W/A238K/L241M/M242W/Q245S/Y246G/L316M/T342M): T1 sequence (Q9UUN9 1-343 F97W/S224A/A238K/L241M/M242W/Q245S/Y246G/L316M/T342M) with A224S

[4] = molecular target: T4, Sporidiobolus salmonicolor ketoreductase variant E00144, Trp97_Met241_Trp242_Ser245_Met316_Met342, SEQ ID NO: 3, His-tag (Sporobolomyces salmonicolor, UniProt Q9UUN9, F97W/L241M/L316M/M242W/Q245S/T342M); assay: Kinetic characterization (app. KM, app. kcat), Table 9c, variant E00144; conditions: E00144, relative to WT = 1
T4 sequence (Q9UUN9 1-343 F97W/L241M/M242W/Q245S/L316M/T342M): T1 sequence (Q9UUN9 1-343 F97W/S224A/A238K/L241M/M242W/Q245S/Y246G/L316M/T342M) with A224S, K238A, G246Y

[5] = molecular target: T5, Sporidiobolus salmonicolor ketoreductase variant E00128, Trp97_Met241_Trp242_Ser245, SEQ ID NO: 2, His-tag (Sporobolomyces salmonicolor, UniProt Q9UUN9, F97W/L241M/M242W/Q245S); assay: Kinetic characterization (app. KM, app. kcat), Table 9c, variant E00128; conditions: E00128, relative to WT = 1
T5 sequence (Q9UUN9 1-343 F97W/L241M/M242W/Q245S): T1 sequence (Q9UUN9 1-343 F97W/S224A/A238K/L241M/M242W/Q245S/Y246G/L316M/T342M) with A224S, K238A, G246Y, M316L, M342T

[6] = molecular target: T6, Sporidiobolus salmonicolor ketoreductase variant E00158, Trp97_Lys238_Met241_Trp242_Ser245_Met316_Met342, SEQ ID NO: 6, His-tag (Sporobolomyces salmonicolor, UniProt Q9UUN9, A238K/F97W/L241M/L316M/M242W/Q245S/T342M); assay: Kinetic characterization (app. KM, app. kcat), Table 9c, variant E00158; conditions: E00158, relative to WT = 1
T6 sequence (Q9UUN9 1-343 F97W/A238K/L241M/M242W/Q245S/L316M/T342M): T1 sequence (Q9UUN9 1-343 F97W/S224A/A238K/L241M/M242W/Q245S/Y246G/L316M/T342M) with A224S, G246Y

[7] = molecular target: T7, Sporidiobolus salmonicolor ketoreductase variant E00184 (second line so labelled); in Table 9b W97 V134 A224 K238 M241 W242 S245 G246 M316 M342, the mutations of (Sporobolomyces salmonicolor, UniProt Q9UUN9, A238K/F97W/L241M/L316M/M242W/Q245S/S224A/T134V/T342M/Y246G); assay: Kinetic characterization (app. KM, app. kcat), Table 9c, variant E00184 (second line); conditions: relative to WT = 1
T7 construct: second row labelled E00184, evidently E00185
T7 sequence (Q9UUN9 1-343 F97W/T134V/S224A/A238K/L241M/M242W/Q245S/Y246G/L316M/T342M): T1 sequence (Q9UUN9 1-343 F97W/S224A/A238K/L241M/M242W/Q245S/Y246G/L316M/T342M) with T134V

## C[C@@H]1CC(=O)c2ncnc(N3CCN(C(=O)OC(C)(C)C)CC3)c21 [ketone of formula Ib]
[1]
  rel. kcat: 43
[2]
  rel. kcat: 1
[3]; relative to WT = 1, substrate saturation not reached
  rel. kcat: 94
[3]; substrate saturation not reached
  app. kcat: 45.8 ± 2.4 min−^1
[4]
  rel. kcat: 13
[5]
  rel. kcat: 12
[6]
  rel. kcat: 31
[7]
  rel. kcat: 64
